Reference: paper PMC8091729 (Bioorganic & Medicinal Chemistry Letters, 2021)

Columns and labels:
[1] = system: SARS-CoV-2; experiment: Image-based antiviral assay; type: cell-based; details: CC50/EC50
[2] = system: COVID-19; details: patients with COVID-19; cited from earlier work

SMILES | selectivity index [1] | benefit in clinical trials [2] [%]
O=C(Cn1c2ccccc2n2c(=O)cc(-c3ccc(Cl)cc3)nc12)Nc1ccc(F)cc1F [Compound 7] | more than 10 | –
CCC(CC)COC(=O)[C@H](C)N[P@](=O)(OC[C@H]1O[C@@](C#N)(c2ccc3c(N)ncnn23)[C@H](O)[C@@H]1O)Oc1ccccc1 [Remdesivir] | – | 68
